# Reference: the supplement of paper PMC9663587
# How the values were obtained:
# Ceritinib/LDK378 = compound: Cc1cc(Nc2ncc(Cl)c(Nc3ccccc3S(=O)(=O)C(C)C)n2)c(OC(C)C)cc1C1CCNCC1 [Ceritinib/LDK378]
# Pictilisib/GDC0941 = compound: CS(=O)(=O)N1CCN(Cc2cc3nc(-c4cccc5[nH]ncc45)nc(N4CCOCC4)c3s2)CC1 [Pictilisib/GDC0941]
# [1] = compound: CCc1cnn2c(NCc3ccc[n+]([O-])c3)cc(N3CCCC[C@H]3CCO)nc12
# LEE011/Ribociclib [2] = compound: T1, CN(C)C(=O)c1cc2cnc(Nc3ccc(N4CCNCC4)cn3)nc2n1C1CCCC1 [LEE011/Ribociclib]
# [3] = compound: Cc1nn(C)c(COc2ccc(N3CCN(S(=O)(=O)N(C)C)CC3)cc2)c1-c1cccc2c(CCCOc3cccc4ccccc34)c(C(=O)O)n(CCN3CCOCC3)c12
# Doxorubicin = compound: COc1cccc2c1C(=O)c1c(O)c3c(c(O)c1C2=O)C[C@@](O)(C(=O)CO)C[C@@H]3O[C@H]1C[C@H](N)[C@H](O)[C@H](C)O1 [Doxorubicin]
# [4] = compound: CCc1cnn2c(NCc3ccc[n+]([O-])c3)cc(N3CCCC[C@H]3CCO)nc12; assay: increase in dead-cell fraction, 72 h; higher = more death;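 further: breast cancer cell lines in 384-well plates, stained with Hoechst plus LIVE/DEAD far red dye and imaged, cells above an LDR intensity threshold counted dead, Hoechst-negative corpses included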
# LEE011/Ribociclib [5] = compound: T1, LEE011/Ribociclib; assay: as above
# [6] = compound: CCN1CCN(Cc2ccc(Nc3ncc(F)c(-c4cc(F)c5nc(C)n(C(C)C)c5c4)n3)nc2)CC1; assay: as above
# YKL-5-124 = compound: C=CC(=O)Nc1ccc(C(=O)Nc2[nH]nc3c2CN(C(=O)N[C@H](CN(C)C)c2ccccc2)C3(C)C)cc1 [YKL-5-124]; assay: as above
# THZ1 = compound: CN(C)C/C=C/C(=O)Nc1ccc(C(=O)Nc2cccc(Nc3ncc(Cl)c(-c4c[nH]c5ccccc45)n3)c2)cc1 [THZ1]; assay: as above
# THZ531 = compound: CN(C)C/C=C/C(=O)Nc1ccc(C(=O)N2CCC[C@@H](Nc3ncc(Cl)c(-c4c[nH]c5ccccc45)n3)C2)cc1 [THZ531]; assay: as above
# Flavopiridol = compound: CN1CC[C@H](c2c(O)cc(O)c3c(=O)cc(-c4ccccc4Cl)oc23)[C@H](O)C1 [Flavopiridol]; assay: as above
# BSJ-03-123 = compound: CC(=O)c1c(C)c2cnc(Nc3ccc(N4CCN(CCOCCOCCOCCNC(=O)COc5cccc6c5C(=O)N(C5CCC(=O)NC5=O)C6=O)CC4)cn3)nc2n(C2CCCC2)c1=O [BSJ-03-123]; assay: as above
# [7] = compound: CC(=O)c1c(C)c2cnc(Nc3ccc(N4CCNCC4)cn3)nc2n(C2CCCC2)c1=O; assay: as above
# Neratinib/HKI272 = compound: CCOc1cc2ncc(C#N)c(Nc3ccc(OCc4ccccn4)c(Cl)c3)c2cc1NC(=O)/C=C/CN(C)C [Neratinib/HKI272]; assay: as above
# 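Wherever GR50, 72 h is given: breast cancer and non-malignant breast epithelial cell lines, Deep Dye Drop or Dye Drop imaging, nine half-log doses, GR normalized to time-zero plates and DMSO-only controls.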
cell line,measurement,setting,value
184A1,"GR50, 72 h",Ceritinib/LDK378,1 µM
same,"GR50, 72 h",Pictilisib/GDC0941,1.3 µM
same,"GR50, 72 h",[1],0.0086 µM
same,"GR50, 72 h",LEE011/Ribociclib [2],0.285 µM
same,"GR50, 72 h",[3],3.65 µM
same,"GR50, 72 h",Doxorubicin,0.00333 µM
same,increase in dead-cell fraction,[4]; 0.0001 µM,-0.0039
same,increase in dead-cell fraction,[4]; 0.0003162 µM,-0.0006
same,increase in dead-cell fraction,[4]; 0.001 µM,-0.0027
same,increase in dead-cell fraction,[4]; 0.003162 µM,-0.0019
same,increase in dead-cell fraction,[4]; 0.01 µM,0.0164
same,increase in dead-cell fraction,[4]; 0.03162 µM,0.277
same,increase in dead-cell fraction,[4]; 0.1 µM,0.127
same,increase in dead-cell fraction,[4]; 0.3162 µM,0.363
same,increase in dead-cell fraction,[4]; 1 µM,0.368
same,increase in dead-cell fraction,LEE011/Ribociclib [5]; 0.001 µM,0.0076
same,increase in dead-cell fraction,LEE011/Ribociclib [5]; 0.003162 µM,0.0015
same,increase in dead-cell fraction,LEE011/Ribociclib [5]; 0.01 µM,0.0139
same,increase in dead-cell fraction,LEE011/Ribociclib [5]; 0.03162 µM,0.0172
same,increase in dead-cell fraction,LEE011/Ribociclib [5]; 0.1 µM,0.0129
same,increase in dead-cell fraction,LEE011/Ribociclib [5]; 0.3162 µM,0.0139
same,increase in dead-cell fraction,LEE011/Ribociclib [5]; 1 µM,0.0153
same,increase in dead-cell fraction,LEE011/Ribociclib [5]; 3.162 µM,0.015
same,increase in dead-cell fraction,LEE011/Ribociclib [5]; 10 µM,0.041
same,increase in dead-cell fraction,[6]; 0.001 µM,0.0016
same,increase in dead-cell fraction,[6]; 0.003162 µM,0.0047
same,increase in dead-cell fraction,[6]; 0.01 µM,0.0067
same,increase in dead-cell fraction,[6]; 0.03162 µM,0.0185
same,increase in dead-cell fraction,[6]; 0.1 µM,0.0336
same,increase in dead-cell fraction,[6]; 0.3162 µM,0.0578
same,increase in dead-cell fraction,[6]; 1 µM,0.056
same,increase in dead-cell fraction,[6]; 3.162 µM,0.0434
same,increase in dead-cell fraction,[6]; 10 µM,0.229
same,increase in dead-cell fraction,YKL-5-124; 0.001 µM,0.02
same,increase in dead-cell fraction,YKL-5-124; 0.003162 µM,0.0379
same,increase in dead-cell fraction,YKL-5-124; 0.01 µM,0.119
same,increase in dead-cell fraction,YKL-5-124; 0.03162 µM,0.122
same,increase in dead-cell fraction,YKL-5-124; 0.1 µM,0.147
same,increase in dead-cell fraction,YKL-5-124; 0.3162 µM,0.0805
same,increase in dead-cell fraction,YKL-5-124; 1 µM,0.137
same,increase in dead-cell fraction,YKL-5-124; 3.162 µM,0.179
same,increase in dead-cell fraction,YKL-5-124; 10 µM,0.34
same,increase in dead-cell fraction,THZ1; 0.0001 µM,-0.0006
same,increase in dead-cell fraction,THZ1; 0.0003162 µM,0.0038
same,increase in dead-cell fraction,THZ1; 0.001 µM,0.0021
same,increase in dead-cell fraction,THZ1; 0.003162 µM,0.0076
same,increase in dead-cell fraction,THZ1; 0.01 µM,0.0448
same,increase in dead-cell fraction,THZ1; 0.03162 µM,0.169
same,increase in dead-cell fraction,THZ1; 0.1 µM,0.175
same,increase in dead-cell fraction,THZ1; 0.3162 µM,0.152
same,increase in dead-cell fraction,THZ531; 0.0001 µM,0.0016
same,increase in dead-cell fraction,THZ531; 0.0003162 µM,0.0042
same,increase in dead-cell fraction,THZ531; 0.001 µM,0.0042
same,increase in dead-cell fraction,THZ531; 0.003162 µM,0.0053
same,increase in dead-cell fraction,THZ531; 0.01 µM,-0.004
same,increase in dead-cell fraction,THZ531; 0.03162 µM,0.0024
same,increase in dead-cell fraction,THZ531; 0.1 µM,0.0107
same,increase in dead-cell fraction,THZ531; 0.3162 µM,0.0204
same,increase in dead-cell fraction,THZ531; 1 µM,0.447
same,increase in dead-cell fraction,Flavopiridol; 0.0001 µM,-0.0061
same,increase in dead-cell fraction,Flavopiridol; 0.0003162 µM,0.0046
same,increase in dead-cell fraction,Flavopiridol; 0.001 µM,-0.0038
same,increase in dead-cell fraction,Flavopiridol; 0.003162 µM,-0.0001
same,increase in dead-cell fraction,Flavopiridol; 0.01 µM,0.0054
same,increase in dead-cell fraction,Flavopiridol; 0.03162 µM,0.0223
same,increase in dead-cell fraction,Flavopiridol; 0.1 µM,0.0902
same,increase in dead-cell fraction,Flavopiridol; 0.3162 µM,0.231
same,increase in dead-cell fraction,Flavopiridol; 1 µM,0.0866
same,increase in dead-cell fraction,BSJ-03-123; 0.001 µM,0.0061
same,increase in dead-cell fraction,BSJ-03-123; 0.003162 µM,0.0101
same,increase in dead-cell fraction,BSJ-03-123; 0.01 µM,0.0181
same,increase in dead-cell fraction,BSJ-03-123; 0.03162 µM,0.0097
same,increase in dead-cell fraction,BSJ-03-123; 0.1 µM,0.0423
same,increase in dead-cell fraction,BSJ-03-123; 0.3162 µM,0.0318
same,increase in dead-cell fraction,BSJ-03-123; 1 µM,0.0505
same,increase in dead-cell fraction,BSJ-03-123; 3.162 µM,0.0581
same,increase in dead-cell fraction,BSJ-03-123; 10 µM,0.179
same,increase in dead-cell fraction,[7]; 0.0003162 µM,-0.0004
same,increase in dead-cell fraction,[7]; 0.001 µM,0.0016
same,increase in dead-cell fraction,[7]; 0.003162 µM,-0.0008
same,increase in dead-cell fraction,[7]; 0.01 µM,0.0001
same,increase in dead-cell fraction,[7]; 0.03162 µM,0.0086
same,increase in dead-cell fraction,[7]; 0.1 µM,0.0183
same,increase in dead-cell fraction,[7]; 0.3162 µM,0.0224
same,increase in dead-cell fraction,[7]; 1 µM,0.0414
same,increase in dead-cell fraction,[7]; 3.162 µM,0.0383
same,increase in dead-cell fraction,Neratinib/HKI272; 0.0003162 µM,-0.004
same,increase in dead-cell fraction,Neratinib/HKI272; 0.001 µM,-0.0007
same,increase in dead-cell fraction,Neratinib/HKI272; 0.003162 µM,-0.0029
same,increase in dead-cell fraction,Neratinib/HKI272; 0.01 µM,0.001
same,increase in dead-cell fraction,Neratinib/HKI272; 0.03162 µM,0.0214
same,increase in dead-cell fraction,Neratinib/HKI272; 0.1 µM,0.0256
same,increase in dead-cell fraction,Neratinib/HKI272; 0.3162 µM,0.0311
same,increase in dead-cell fraction,Neratinib/HKI272; 1 µM,0.028
same,increase in dead-cell fraction,Neratinib/HKI272; 3.162 µM,0.0419
